The target in experiment [1] is T1, Oxysterols receptor LXR-beta (Homo sapiens, UniProt P55055).
T1 sequence (P55055 whole entry): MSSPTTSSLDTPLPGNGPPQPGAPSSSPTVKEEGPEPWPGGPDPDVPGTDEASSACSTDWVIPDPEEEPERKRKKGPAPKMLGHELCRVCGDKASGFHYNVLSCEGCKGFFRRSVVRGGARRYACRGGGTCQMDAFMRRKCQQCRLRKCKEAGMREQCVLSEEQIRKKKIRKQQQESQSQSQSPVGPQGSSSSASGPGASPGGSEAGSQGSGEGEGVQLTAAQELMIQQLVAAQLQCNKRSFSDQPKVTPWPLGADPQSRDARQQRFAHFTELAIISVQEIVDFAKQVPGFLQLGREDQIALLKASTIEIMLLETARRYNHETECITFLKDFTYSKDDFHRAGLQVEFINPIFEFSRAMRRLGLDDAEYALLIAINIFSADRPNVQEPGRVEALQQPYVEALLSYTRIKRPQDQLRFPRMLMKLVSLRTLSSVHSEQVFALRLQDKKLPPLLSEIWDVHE
It counts as functional, cell-based.

A short description of experiment [2]: cells.
In experiment [3] the target is T1, Oxysterols receptor LXR-beta. In words: LXR agonists, Gal4 luciferase reporter, dose response, counter-screen for ssDAF-12 agonist project, cell-based, luminescence, HEK293, S. stercoralis campaign (AID 720737). The class given is functional. Conditions: read-out: IC50 (the source's name). A general note: In a reporter assay the amount or activity of a reporter protein is the signal.

Experiment [4] is described as follows: cytotoxicity in KRAS-transformed pancreatic duct cells, primary screen, cell-based, fluorescence, HTS (AID 431).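 Note: cell line used: HPDE-C7K.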 It counts as functional. To be noted: Homo sapiens.
A short description of experiment [5]: cytotoxicity in HPDE-C7 cells, cell-based, fluorescence, HTS (AID 430). The class given is functional. Conditions: Homo sapiens.
Experiment [6] in a line: Luminescence-based cell-based high throughput dose response assay to identify activators of the DAF-12 from the parasite S. stercoralis (ssDAF-12). It counts as functional.
Experiment [7] has as its target Cyclin-dependent kinase 5/CDK5 activator 1 (Homo sapiens, UniProt Q00535). In words: CDK5/p35 kinase inhibitors, dose response, biochemical, cherry-picked samples, set 2 (AID 504545).
Experiment [8] is described as follows: non-specific cell cytotoxicity, dose response, cytotoxicity control for PAX8 inhibitor project, plate reader, dry powder samples (AID 743021). It counts as functional, cell-based.
The target of experiment [9] is T2, DNA repair protein RAD52 homolog (Homo sapiens, UniProt P43351).
T2 sequence (P43351 whole entry): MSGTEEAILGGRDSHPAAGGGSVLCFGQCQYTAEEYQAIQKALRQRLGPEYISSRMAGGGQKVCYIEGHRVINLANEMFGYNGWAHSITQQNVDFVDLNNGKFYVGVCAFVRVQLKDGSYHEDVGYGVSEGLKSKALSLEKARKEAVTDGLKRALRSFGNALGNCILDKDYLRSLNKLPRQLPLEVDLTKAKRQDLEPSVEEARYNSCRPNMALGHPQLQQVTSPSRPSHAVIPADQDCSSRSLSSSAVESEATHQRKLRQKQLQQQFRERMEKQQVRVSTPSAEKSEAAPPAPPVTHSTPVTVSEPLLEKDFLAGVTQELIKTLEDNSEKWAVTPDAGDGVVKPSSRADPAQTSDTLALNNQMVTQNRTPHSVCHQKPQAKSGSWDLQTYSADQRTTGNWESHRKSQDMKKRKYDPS
The class given is functional, biochemical.

Experiment [10] concerns the target Melanocortin receptor 4 (Homo sapiens, UniProt P32245). It counts as functional, cell-based.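 Note: Cell-based assay with luminescence read-out, confirmatory dose-response testing for agonist activity of biased ligands at MC4R; human U2OS cells with tagged receptor and beta-arrestin; potency of agonists that increase receptor coupling to beta-arrestin.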
Experiment [11] has as its target Paired box protein Pax-8 (Homo sapiens, UniProt Q06710). Put plainly: inhibitors of PAX8-driven TPO luciferase reporter, dose response, RMG-I cells, cherry-pick (AID 687027).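 Note: luciferase reporter driven by Pax8 target thyroperoxidase promoter measured by SteadyGlo luminescence.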 The class given is functional, cell-based.
A short description of experiment [12]: PAX2 cell-based inhibition, dose response, selectivity assay for PAX8 inhibitor project, plate reader, dry powder samples (AID 743048).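 Note: HEK293 cells carrying a WT1 promoter luciferase reporter driven by expressed Pax2; potency is for inhibition of Pax2 driven reporter signal.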 The class given is functional.
Experiment [13] can be described thus: cytotoxicity dependent on PAX8, dose response, cell-based, plate reader, dry powder (AID 743049). The class given is functional.
A short description of experiment [14]: cytotoxicity in OV-90 ovarian cancer cells, dose response, PAX8 inhibitor project, cell-based, plate reader, dry powder, SA8 (AID 743149). It counts as functional.
A short description of experiment [15]: PAX5 activity inhibitors, dose response, selectivity assay for PAX8 inhibitor project, cell-based, plate reader, dry powder samples (AID 743047).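 Note: HEK293 cells carrying a Pax5 driven CD19 promoter luciferase reporter; potency of inhibitors that lower reporter luminescence.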 It counts as functional.
The nature of experiment [16]: cytotoxicity in COV362 ovarian cancer cells, dose response, cytotoxicity control for PAX8 inhibitor project, cell-based, plate reader, dry powder, SA12 (AID 743144). It counts as functional.
Experiment [17] can be described thus: ADAM10 protease inhibitors, dose response, selectivity assay for ADAM17 exosite inhibitor project, biochemical, FRET peptide substrate, recombinant human ADAM10 (AID 743259).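 Note: ADAM10 enzyme cleaving a FRET peptide substrate.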
The target of experiment [18] is Disintegrin and metalloproteinase domain-containing protein 17 (Homo sapiens, UniProt P78536). Put plainly: exosite inhibitors of ADAM17, dose response, biochemical (AID 743260).
Sequence of Disintegrin and metalloproteinase domain-containing protein 17 (P78536 whole entry, the tested form may be a part): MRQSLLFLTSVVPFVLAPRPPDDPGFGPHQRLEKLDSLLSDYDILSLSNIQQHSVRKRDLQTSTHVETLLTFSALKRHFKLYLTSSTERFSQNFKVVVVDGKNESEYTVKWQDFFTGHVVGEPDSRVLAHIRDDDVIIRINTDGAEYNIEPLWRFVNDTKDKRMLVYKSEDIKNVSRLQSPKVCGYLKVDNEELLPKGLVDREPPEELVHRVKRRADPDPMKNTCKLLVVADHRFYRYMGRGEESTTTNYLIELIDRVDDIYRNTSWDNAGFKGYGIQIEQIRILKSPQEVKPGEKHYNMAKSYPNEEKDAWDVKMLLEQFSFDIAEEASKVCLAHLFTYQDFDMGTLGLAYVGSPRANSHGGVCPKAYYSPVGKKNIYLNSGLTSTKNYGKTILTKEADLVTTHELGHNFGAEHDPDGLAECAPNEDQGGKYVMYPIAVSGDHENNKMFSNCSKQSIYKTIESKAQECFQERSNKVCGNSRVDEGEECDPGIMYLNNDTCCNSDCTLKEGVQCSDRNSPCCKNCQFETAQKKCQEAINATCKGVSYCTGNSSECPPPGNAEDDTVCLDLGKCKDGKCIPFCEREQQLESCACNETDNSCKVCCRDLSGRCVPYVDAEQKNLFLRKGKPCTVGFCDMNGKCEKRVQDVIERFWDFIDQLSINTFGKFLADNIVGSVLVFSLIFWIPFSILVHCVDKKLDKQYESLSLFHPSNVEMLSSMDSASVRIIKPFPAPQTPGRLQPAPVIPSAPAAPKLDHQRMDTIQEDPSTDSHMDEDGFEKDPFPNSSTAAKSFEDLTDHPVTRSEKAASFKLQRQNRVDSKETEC
The nature of experiment [19]: cytotoxicity toward NIH3T3 fibroblasts, dose response, counter-screen, cell-based, ATP luminescence, mouse fibroblasts (AID 2010).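 Note: cells exposed to compound for about 90 hours before reading.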 It counts as functional. For orientation: The purpose of a counterscreen is to sort out artefacts and off-target activity.
Experiment [20] concerns the target Beta-galactosidase (Escherichia coli, UniProt Q8VNN2). Put plainly: beta-galactosidase enzyme inhibitors and activators, dose response, artefact control for CCR6 antagonist project, biochemical, E. coli enzyme, set 3 (AID 504712). The class given is functional.
The nature of experiment [21]: cells. This is another data set of the same source.
The nature of experiment [22]: inhibitors of intracellular T. cruzi replication, confirmation, NIH3T3 host cells, beta-gal luminescence (AID 2044).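 Note: intracellular parasites grown in NIH/3T3 mouse fibroblasts as host cells; luminescent beta-galactosidase reporter signal from transgenic T. cruzi replicating inside host cells; inhibitors lower the luminescence signal.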 The class given is functional, cell-based.
Experiment [23] can be described thus: Concentration-dependent survival of SW480 colon cancer line, luminescence detection with CellTiter-Glo, half-maximal inhibitory concentration (AID 1117338). It counts as functional. A general note: ATP-based viability assays read luminescence as a measure of living cells.
A short description of experiment [24]: SNU-C1 cell viability reduction, dose response, CellTiter-Glo luminescence (AID 1117323). The class given is functional, cell-based.
Experiment [25] can be described thus: RKO cell viability reduction, dose response, CellTiter-Glo luminescence (AID 1117322). The class given is functional.
A short description of experiment [26]: cytotoxicity toward HT-29 cells – cell-based, CellTiter-Glo luminescence, IC50, dose response (AID 1117330). It counts as functional.
Experiment [27] can be described thus: CellTiter-Glo luminescent dose response of DLD-1 viability loss (AID 1117352). The class given is functional.
A short description of experiment [28]: cytotoxicity toward HCT116 cells – cell-based, CellTiter-Glo luminescence, IC50, dose response (AID 1117332). It counts as functional. Conditions: HCT-116.
The nature of experiment [29]: cytotoxicity toward Colo320 cells – cell-based, CellTiter-Glo luminescence, IC50, dose response (AID 1117334). It counts as functional. Conditions: COLO 320.

The structures appear in SMILES notation. Activity calls are given as the source filed them.

One may read the IC50 as the concentration that inhibits the measured activity by half. In general, AC50 refers to the concentration giving half of the maximal activity seen.

Sequence of Paired box protein Pax-8 (Q06710 whole entry): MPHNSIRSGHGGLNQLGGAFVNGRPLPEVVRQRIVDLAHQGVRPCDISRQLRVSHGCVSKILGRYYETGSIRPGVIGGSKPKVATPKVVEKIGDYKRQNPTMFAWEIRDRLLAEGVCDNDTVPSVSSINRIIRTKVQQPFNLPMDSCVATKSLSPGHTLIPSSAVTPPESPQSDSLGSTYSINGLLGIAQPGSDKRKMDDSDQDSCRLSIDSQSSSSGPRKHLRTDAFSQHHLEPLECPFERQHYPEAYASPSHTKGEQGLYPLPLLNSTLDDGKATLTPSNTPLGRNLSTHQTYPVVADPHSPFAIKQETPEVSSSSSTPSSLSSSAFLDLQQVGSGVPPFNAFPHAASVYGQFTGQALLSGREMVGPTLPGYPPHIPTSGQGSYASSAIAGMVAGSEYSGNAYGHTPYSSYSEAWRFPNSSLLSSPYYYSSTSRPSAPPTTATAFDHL
Sequence of Melanocortin receptor 4 (P32245 whole entry): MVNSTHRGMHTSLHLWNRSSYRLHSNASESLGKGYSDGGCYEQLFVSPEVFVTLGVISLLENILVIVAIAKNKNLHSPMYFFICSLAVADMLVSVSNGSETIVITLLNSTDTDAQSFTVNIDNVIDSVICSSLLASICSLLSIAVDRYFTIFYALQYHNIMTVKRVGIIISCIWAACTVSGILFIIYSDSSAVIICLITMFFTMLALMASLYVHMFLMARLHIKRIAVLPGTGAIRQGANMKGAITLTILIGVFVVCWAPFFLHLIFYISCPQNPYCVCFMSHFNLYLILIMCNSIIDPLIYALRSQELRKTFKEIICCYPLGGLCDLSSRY
Sequence of Cyclin-dependent kinase 5/CDK5 activator 1 (Q00535 whole entry): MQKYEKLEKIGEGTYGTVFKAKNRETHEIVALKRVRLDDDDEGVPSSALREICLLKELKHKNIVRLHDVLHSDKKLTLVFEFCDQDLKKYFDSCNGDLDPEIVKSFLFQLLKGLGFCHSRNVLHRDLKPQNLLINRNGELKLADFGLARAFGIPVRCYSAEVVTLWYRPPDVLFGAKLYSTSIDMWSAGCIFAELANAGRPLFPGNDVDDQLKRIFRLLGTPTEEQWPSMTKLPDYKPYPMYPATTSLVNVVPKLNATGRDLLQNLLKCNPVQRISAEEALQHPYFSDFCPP
Sequence of Cyclin-dependent kinase 5/CDK5 activator 1 (Q15078 whole entry, further chain): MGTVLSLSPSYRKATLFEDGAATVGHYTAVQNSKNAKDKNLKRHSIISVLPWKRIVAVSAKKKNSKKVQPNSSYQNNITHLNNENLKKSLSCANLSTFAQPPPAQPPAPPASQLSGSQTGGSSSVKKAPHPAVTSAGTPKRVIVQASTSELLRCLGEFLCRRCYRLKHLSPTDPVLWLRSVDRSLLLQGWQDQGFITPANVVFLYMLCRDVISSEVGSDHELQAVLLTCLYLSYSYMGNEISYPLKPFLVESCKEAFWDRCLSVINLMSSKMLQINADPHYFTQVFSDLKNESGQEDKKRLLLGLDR
Sequence of Beta-galactosidase (Q8VNN2 whole entry): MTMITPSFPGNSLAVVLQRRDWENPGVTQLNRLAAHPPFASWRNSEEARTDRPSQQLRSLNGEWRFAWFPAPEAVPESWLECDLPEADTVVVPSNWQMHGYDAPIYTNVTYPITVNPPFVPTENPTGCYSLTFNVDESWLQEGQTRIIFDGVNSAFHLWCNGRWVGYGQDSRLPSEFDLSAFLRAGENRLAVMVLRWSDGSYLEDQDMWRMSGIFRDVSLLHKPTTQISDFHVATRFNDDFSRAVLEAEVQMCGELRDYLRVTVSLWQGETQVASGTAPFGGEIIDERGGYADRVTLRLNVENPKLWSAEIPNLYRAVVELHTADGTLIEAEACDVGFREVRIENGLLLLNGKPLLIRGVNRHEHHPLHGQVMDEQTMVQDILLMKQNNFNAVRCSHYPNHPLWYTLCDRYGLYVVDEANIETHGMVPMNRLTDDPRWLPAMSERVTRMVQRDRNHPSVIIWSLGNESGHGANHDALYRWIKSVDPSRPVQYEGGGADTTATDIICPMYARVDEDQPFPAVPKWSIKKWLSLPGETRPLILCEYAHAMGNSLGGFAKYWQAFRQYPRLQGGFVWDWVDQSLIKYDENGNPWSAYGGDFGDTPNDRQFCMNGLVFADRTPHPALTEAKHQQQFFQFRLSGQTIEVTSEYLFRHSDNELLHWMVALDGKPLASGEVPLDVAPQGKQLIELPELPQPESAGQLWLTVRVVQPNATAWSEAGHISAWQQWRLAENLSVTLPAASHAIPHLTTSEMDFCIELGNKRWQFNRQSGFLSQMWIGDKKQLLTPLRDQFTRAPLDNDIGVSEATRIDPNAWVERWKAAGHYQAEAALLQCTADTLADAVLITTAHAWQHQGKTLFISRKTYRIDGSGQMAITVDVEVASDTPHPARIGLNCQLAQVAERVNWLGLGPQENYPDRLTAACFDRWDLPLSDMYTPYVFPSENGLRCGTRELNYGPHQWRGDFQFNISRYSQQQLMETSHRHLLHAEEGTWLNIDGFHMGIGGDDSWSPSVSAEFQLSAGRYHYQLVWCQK

As to `COc1ccc2c(=O)c(-c3nc(C)cs3)coc2c1`, the EC50 in experiment [1] and in experiment [2] was > 67.5 µM (inactive) in each case.
For the molecule `Cc1ccc2nc(-c3ccccc3)cc(O)c2c1`, the values for the EC50 in experiment [3], in [4] and in experiment [5] were > 67.5 µM (inactive), 1.14 µM (active) and 0.91 µM (active), respectively. The IC50 in experiment [6] was > 67.5 µM (inactive).
In the case of `O=C(Cc1ccc(O)cc1)NCCN=C(S)NCc1ccccc1`, in experiment [7], the AC50 was 27.6 µM (active).
`CN(C)CCNC(=O)c1cccc(-c2cnc3c(NC=O)cc(-c4cccc(C(F)(F)F)c4)cn23)c1`: the AC50 in experiment [8] is 54.8 µM (active); in [9], 2.4 µM (active); in [11], 9.07 µM (active). Also, the EC50 in experiment [10] was > 89.2 µM (inactive).
As for `COc1cccc(C#Cc2ccc([C@H]3[C@@H](C#N)N(C(=O)c4ccccn4)[C@@H]3CO)cc2)c1`, the concentration at half-maximal activity (AC50) is 14.1 µM (active) in [12]; 47.3 µM (active) in experiment [13]; > 70 µM (inactive) in experiment [14]; 15.2 µM (active) in [15]; 43.7 µM (active) in experiment [16]; 15 µM (active) in experiment [11].
With `CCOC(=O)N1CCN(C(=O)C[C@H]2C[C@@]3(C(=O)OC)C(=C[C@H](C(C)C)O[C@@H]3C3CC3)N(Cc3ccc(Cl)cc3Cl)C2=O)CC1`, the IC50 is 16.4 µM (inactive) in experiment [17] and > 69.5 µM (inactive) in experiment [18].
With `C[C@@H]1CCCCO[C@H](CN(C)C)[C@H](C)CN([C@@H](C)CO)C(=O)c2cc(NS(=O)(=O)c3ccc(Cl)cc3)ccc2O1`, the AC50 in experiment [8] was 1.71 µM (active).
On to `C/C(CC1CC2=C(CC1(C)C)C(C)(C)CCC2)=N\NC(N)=S` (stereo not drawn), for which the EC50 in experiment [19] is > 60 µM (not active); in [21], 0.139 µM (active); in [22], < 0.1 µM (active). Besides, the IC50 in experiment [20] is > 66.6 µM (inactive).
For `CCc1ccc(NC(=O)CO/N=C(\C)c2cc3ccccc3o2)cc1`, the IC50 in experiment [17] and in [18] was > 69.5 µM (inactive) throughout.
Turning to `CC(C)=CC1C(C(=O)OCN2C(=O)C3=C(CCCC3)C2=O)C1(C)C` (stereo not drawn) [TETRAMETHRIN], the IC50 in experiment [23], in experiment [24], in experiment [25], in [26], in [27] and in experiment [28] was > 20 µM (inactive) in each case. The IC50 in experiment [29] is > 20 µM (inactive).
